Earlier results on one substance are cited in article PMC3157551 (Bioconjugate chemistry, 2011).

With “avidin: avidin (Pierce-Thermo), 128 amino acid biotin-binding protein”, the “dissociation half-time of biotin from avidin” value was 89 days.
